# Test results: paper PMC6277767, “Broad and Region-Specific Impacts of the Synthetic Cannabinoid CP 55,940 in Adolescent and Adult Female Mouse Brains” (Frontiers in Molecular Neuroscience, 2018)
# Test system: CD1 female mouse brain lipidome
# Experiment: Brain-region lipid levels (HPLC/MS/MS lipidomics) 2 h after single i.p. 3 mg/kg CP 55,940 vs vehicle
# Format: in vivo
# Description: The Bloomington Institutional Animal Care and Use Committee of Indiana University reviewed and approved the animal procedures. Female mice from the CD1 strain were utilized to match our study examining THC’s effects on the brain lipidome ([Leishman et al., 2018]). Mice were given a single i.p. injection of either 3 mg/kg CP or 1:1:18 cremophor:ethanol:saline vehicle (please refer to the section “3 mg/kg CP Is Relevant for Synthetic Cannabinoid Abuse and Has Stronger Effects on the Female Mouse Brain Lipidome During Adolescence” for a justification of dose and use of female mice). Three different age groups were given injections: PND 35 and PND 50 adolescents, and adult mice (PND 113). At least eight mice in each age group received CP and at least eight received vehicle. Matching the THC study time course ([Leishman et al., 2018]), mice were sacrificed via rapid decapitation 2 h after injection. Brains were immediately removed and flash-frozen in liquid nitrogen, and then stored at -80°C until dissections were performed. Brains were dissected on an ice-cold dissection plate into the following regions: STR, HIPP, CER, THAL, CTX, HYP, MID, and STEM. These abbreviations for these brain areas will be used exclusively when discussing the results generated by these specific dissections. Each dissected area was immediately placed in liquid nitrogen and then stored at -80°C until used for lipid extraction.
# Tissue extracts were performed as previously described ([Bradshaw et al., 2006]; [Stuart et al., 2013]; [Raboune et al., 2014]; [Leishman et al., 2016a],[b], [2017], [2018]). First, samples were shock frozen in liquid nitrogen, weighed, and transferred to a centrifuge tube. The mass of the largest sample was multiplied by 50 to determine how many milliliters of HPLC-grade methanol (Fisher, Fair Lawn, NJ, United States) to add. Then, samples were spiked with 500 pmol deuterium-labeled NAGly (d8NAGly; Cayman Chemical, Ann Arbor, MI, United States). Samples were placed on ice in darkness for 2 h then individually homogenized and centrifuged at 19,000 × g for 20 min at 20°C. Supernatants were diluted with HPLC water (purified in house) to make a solution of 75% water, 25% supernatant. Lipids were partially purified on C18 solid phase extraction columns (Agilent, Palo Alto, CA, United States). A series of four elutions with 1.5 mL of 60%, 75%, 85%, and 100% methanol were collected ([Stuart et al., 2013]; [Leishman et al., 2016a],[b], [2018]).
# As previously described ([Bradshaw et al., 2006]; [Tan et al., 2006]; [Smoum et al., 2010]; [Stuart et al., 2013]; [Tortoriello et al., 2013]; [Raboune et al., 2014]; [Leishman et al., 2016a],[b], [2017], [2018]), samples were analyzed using an Applied Biosystems API 3000 triple quadrupole mass spectrometer with electrospray ionization (Foster City, CA, United States). Using an Agilent XDB-C18 reversed phase analytical column and optimized mobile phase gradients, 20 μL from each elution were chromatographed. Two Shimadzu 10ADvp pumps (Columbia, MD, United States) provided the pressure for gradient elution. Mobile phase A: 20% methanol, 80% water (v/v) and 1 mM ammonium acetate (Sigma, St. Louis, MO, United States). Mobile phase B: 100% methanol, 1 mM ammonium acetate. Every method run began with 0% mobile phase B, reached 100% mobile phase B flowing at 0.2 mL/min, and gradually returned to 0% mobile phase B.
# This screening library will be referred to as the lipidome when discussing data from this study. HPLC/MS/MS data were analyzed using Analyst software (Applied Biosystems) ([Bradshaw et al., 2006]; [Tan et al., 2006]; [Stuart et al., 2013]; [Tortoriello et al., 2013]; [Raboune et al., 2014]; [Leishman et al., 2016a],[b], [2017], [2018]). Chromatograms (Supplementary Figure 3) were generated by determining the retention time of analytes from the analytical column with a [M-1] or [M+1] parent peak and a fragmentation peak corresponding to the programmed values. […]
structure (smiles),measurement,setting,value
"CCCCCCC(C)(C)c1ccc([C@@H]2C[C@H](O)CC[C@H]2CCCO)c(O)c1 [CP 55,940]",PGF2α level vs vehicle,PND 35 HIPP,↑ (1-1.49 times higher than vehicle)
same,number of lipids changed,"PND 35 HIPP, 65 detected",39
same,2-arachidonoyl glycerol level vs vehicle,PND 35 HYP,↓↓↓ (2-2.99 times lower than vehicle)
same,2-linoleoyl glycerol level vs vehicle,PND 35 HYP,↓↓ (1.50-1.99 times lower than vehicle)
same,2-oleoyl glycerol level vs vehicle,PND 35 HYP,↓↓ (1.50-1.99 times lower than vehicle)
same,2-palmitoyl glycerol level vs vehicle,PND 35 HYP,↑ (1-1.49 times higher than vehicle)
same,Arachidonic acid level vs vehicle,PND 35 HYP,↓ (1-1.49 times lower than vehicle)
same,Linoleic acid level vs vehicle,PND 35 HYP,↓ (1-1.49 times lower than vehicle)
same,N-arachidonoyl GABA level vs vehicle,PND 35 HYP,↓ (1-1.49 times lower than vehicle)
same,N-arachidonoyl alanine level vs vehicle,PND 35 HYP,↓↓ (1.50-1.99 times lower than vehicle)
same,N-arachidonoyl ethanolamine level vs vehicle,PND 35 HYP,↓ (1-1.49 times lower than vehicle)
same,N-arachidonoyl glycine level vs vehicle,PND 35 HYP,↓ (1-1.49 times lower than vehicle)
same,N-arachidonoyl phenylalanine level vs vehicle,PND 35 HYP,↓ (1-1.49 times lower than vehicle)
same,N-arachidonoyl taurine level vs vehicle,PND 35 HYP,↓ (1-1.49 times lower than vehicle)
same,N-docosahexaenoyl GABA level vs vehicle,PND 35 HYP,↓ (1-1.49 times lower than vehicle)
same,N-docosahexaenoyl ethanolamine level vs vehicle,PND 35 HYP,↓↓ (1.50-1.99 times lower than vehicle)
same,N-linoleoyl alanine level vs vehicle,PND 35 HYP,↓ (1-1.49 times lower than vehicle)
same,N-oleoyl GABA level vs vehicle,PND 35 HYP,↓ (1-1.49 times lower than vehicle)
same,N-oleoyl alanine level vs vehicle,PND 35 HYP,↓ (1-1.49 times lower than vehicle)
same,N-oleoyl ethanolamine level vs vehicle,PND 35 HYP,↓↓ (1.50-1.99 times lower than vehicle)
same,N-palmitoyl ethanolamine level vs vehicle,PND 35 HYP,↓↓ (1.50-1.99 times lower than vehicle)
same,N-palmitoyl leucine level vs vehicle,PND 35 HYP,↑ (1-1.49 times higher than vehicle)
same,N-stearoyl ethanolamine level vs vehicle,PND 35 HYP,↓ (1-1.49 times lower than vehicle)
same,Oleic Acid level vs vehicle,PND 35 HYP,↓ (1-1.49 times lower than vehicle)
same,PGE2 level vs vehicle,PND 35 HYP,↓ (1-1.49 times lower than vehicle)
same,PGF2α level vs vehicle,PND 35 HYP,↑ (1-1.49 times higher than vehicle)
same,phosphoLEA level vs vehicle,PND 35 HYP,↑ (1-1.49 times higher than vehicle)
same,2-linoleoyl glycerol level vs vehicle,PND 35 MID,↓ (1-1.49 times lower than vehicle)
same,6-ketoPGF1α level vs vehicle,PND 35 MID,↓ (1-1.49 times lower than vehicle)
same,Arachidonic acid level vs vehicle,PND 35 MID,↓ (1-1.49 times lower than vehicle)
same,N- stearoyl valine level vs vehicle,PND 35 MID,↑ (1-1.49 times higher than vehicle)
same,N-arachidonoyl GABA level vs vehicle,PND 35 MID,↓ (1-1.49 times lower than vehicle)
same,N-arachidonoyl alanine level vs vehicle,PND 35 MID,↓ (1-1.49 times lower than vehicle)
same,N-arachidonoyl glycine level vs vehicle,PND 35 MID,↓ (1-1.49 times lower than vehicle)
same,N-arachidonoyl serine level vs vehicle,PND 35 MID,↓ (1-1.49 times lower than vehicle)
same,N-arachidonoyl taurine level vs vehicle,PND 35 MID,↓ (1-1.49 times lower than vehicle)
same,N-arachidonoyl tyrosine level vs vehicle,PND 35 MID,↓ (1-1.49 times lower than vehicle)
same,N-docosahexaenoyl GABA level vs vehicle,PND 35 MID,↓ (1-1.49 times lower than vehicle)
same,N-docosahexaenoyl alanine level vs vehicle,PND 35 MID,↓ (1-1.49 times lower than vehicle)
same,N-docosahexaenoyl glycine level vs vehicle,PND 35 MID,↓ (1-1.49 times lower than vehicle)
same,N-docosahexaenoyl leucine level vs vehicle,PND 35 MID,↑ (1-1.49 times higher than vehicle)
same,N-docosahexaenoyl methionine level vs vehicle,PND 35 MID,↓ (1-1.49 times lower than vehicle)
same,N-docosahexaenoyl serine level vs vehicle,PND 35 MID,↓ (1-1.49 times lower than vehicle)
same,N-docosahexaenoyl tyrosine level vs vehicle,PND 35 MID,↓ (1-1.49 times lower than vehicle)
same,N-docosahexaenoyl valine level vs vehicle,PND 35 MID,↑↑ (1.50-1.99 times higher than vehicle)
same,N-linoleoyl ethanolamine level vs vehicle,PND 35 MID,↑ (1-1.49 times higher than vehicle)
same,N-oleoyl GABA level vs vehicle,PND 35 MID,↓ (1-1.49 times lower than vehicle)
same,N-oleoyl ethanolamine level vs vehicle,PND 35 MID,↓ (1-1.49 times lower than vehicle)
same,N-oleoyl phenylalanine level vs vehicle,PND 35 MID,↑ (1-1.49 times higher than vehicle)
same,N-oleoyl valine level vs vehicle,PND 35 MID,↑ (1-1.49 times higher than vehicle)
same,N-palmitoyl leucine level vs vehicle,PND 35 MID,↑ (1-1.49 times higher than vehicle)
same,N-palmitoyl phenylalanine level vs vehicle,PND 35 MID,↑ (1-1.49 times higher than vehicle)
same,N-palmitoyl valine level vs vehicle,PND 35 MID,↑↑ (1.50-1.99 times higher than vehicle)
same,N-stearoyl methionine level vs vehicle,PND 35 MID,↑ (1-1.49 times higher than vehicle)
same,N-stearoyl tyrosine level vs vehicle,PND 35 MID,↓ (1-1.49 times lower than vehicle)
same,PGE2 level vs vehicle,PND 35 MID,↑ (1-1.49 times higher than vehicle)
same,PGF2α level vs vehicle,PND 35 MID,↑ (1-1.49 times higher than vehicle)
same,phosphoLEA level vs vehicle,PND 35 MID,↑ (1-1.49 times higher than vehicle)
same,2-arachidonoyl glycerol level vs vehicle,PND 35 STEM,↓ (1-1.49 times lower than vehicle)
same,2-linoleoyl glycerol level vs vehicle,PND 35 STEM,↓ (1-1.49 times lower than vehicle)
same,N- stearoyl valine level vs vehicle,PND 35 STEM,↑ (1-1.49 times higher than vehicle)
same,N-arachidonoyl GABA level vs vehicle,PND 35 STEM,↓ (1-1.49 times lower than vehicle)
same,N-arachidonoyl taurine level vs vehicle,PND 35 STEM,↓ (1-1.49 times lower than vehicle)
same,N-docosahexaenoyl leucine level vs vehicle,PND 35 STEM,↑ (1-1.49 times higher than vehicle)
same,N-docosahexaenoyl valine level vs vehicle,PND 35 STEM,↑ (1-1.49 times higher than vehicle)
same,N-oleoyl leucine level vs vehicle,PND 35 STEM,↑ (1-1.49 times higher than vehicle)
same,N-oleoyl proline level vs vehicle,PND 35 STEM,↑ (1-1.49 times higher than vehicle)
same,N-oleoyl valine level vs vehicle,PND 35 STEM,↑ (1-1.49 times higher than vehicle)
same,N-palmitoyl leucine level vs vehicle,PND 35 STEM,↑ (1-1.49 times higher than vehicle)
same,N-palmitoyl phenylalanine level vs vehicle,PND 35 STEM,↑ (1-1.49 times higher than vehicle)
same,N-palmitoyl proline level vs vehicle,PND 35 STEM,↑ (1-1.49 times higher than vehicle)
same,N-palmitoyl tryptophan level vs vehicle,PND 35 STEM,↓ (1-1.49 times lower than vehicle)
same,N-palmitoyl valine level vs vehicle,PND 35 STEM,↑ (1-1.49 times higher than vehicle)
same,PGE2 level vs vehicle,PND 35 STEM,↑ (1-1.49 times higher than vehicle)
same,number of lipids changed,"PND 35 STEM, 70 detected",16
same,2-arachidonoyl glycerol level vs vehicle,PND 35 STR,↓ (1-1.49 times lower than vehicle)
same,2-linoleoyl glycerol level vs vehicle,PND 35 STR,↓↓ (1.50-1.99 times lower than vehicle)
same,2-oleoyl glycerol level vs vehicle,PND 35 STR,↓ (1-1.49 times lower than vehicle)
same,N- stearoyl valine level vs vehicle,PND 35 STR,↑ (1-1.49 times higher than vehicle)
same,N-arachidonoyl GABA level vs vehicle,PND 35 STR,↓↓ (1.50-1.99 times lower than vehicle)
same,N-arachidonoyl alanine level vs vehicle,PND 35 STR,↓ (1-1.49 times lower than vehicle)
same,N-arachidonoyl glycine level vs vehicle,PND 35 STR,↓ (1-1.49 times lower than vehicle)
same,N-arachidonoyl phenylalanine level vs vehicle,PND 35 STR,↓ (1-1.49 times lower than vehicle)
same,N-arachidonoyl serine level vs vehicle,PND 35 STR,↓↓ (1.50-1.99 times lower than vehicle)
same,N-arachidonoyl taurine level vs vehicle,PND 35 STR,↓ (1-1.49 times lower than vehicle)
same,N-arachidonoyl tyrosine level vs vehicle,PND 35 STR,↓ (1-1.49 times lower than vehicle)
same,N-docosahexaenoyl GABA level vs vehicle,PND 35 STR,↓ (1-1.49 times lower than vehicle)
same,N-docosahexaenoyl alanine level vs vehicle,PND 35 STR,↓ (1-1.49 times lower than vehicle)
same,N-docosahexaenoyl ethanolamine level vs vehicle,PND 35 STR,↓ (1-1.49 times lower than vehicle)
same,N-docosahexaenoyl leucine level vs vehicle,PND 35 STR,↑ (1-1.49 times higher than vehicle)
same,N-docosahexaenoyl serine level vs vehicle,PND 35 STR,↓ (1-1.49 times lower than vehicle)
same,N-oleoyl GABA level vs vehicle,PND 35 STR,↓ (1-1.49 times lower than vehicle)
same,N-oleoyl alanine level vs vehicle,PND 35 STR,↓ (1-1.49 times lower than vehicle)
same,N-oleoyl ethanolamine level vs vehicle,PND 35 STR,↓↓ (1.50-1.99 times lower than vehicle)
same,N-oleoyl glycine level vs vehicle,PND 35 STR,↓ (1-1.49 times lower than vehicle)
same,N-palmitoyl ethanolamine level vs vehicle,PND 35 STR,↓ (1-1.49 times lower than vehicle)
same,N-palmitoyl leucine level vs vehicle,PND 35 STR,↑ (1-1.49 times higher than vehicle)
same,N-palmitoyl valine level vs vehicle,PND 35 STR,↑↑ (1.50-1.99 times higher than vehicle)
same,N-stearoyl alanine level vs vehicle,PND 35 STR,↓ (1-1.49 times lower than vehicle)
same,N-stearoyl leucine level vs vehicle,PND 35 STR,↓ (1-1.49 times lower than vehicle)
same,N-stearoyl serine level vs vehicle,PND 35 STR,↓ (1-1.49 times lower than vehicle)
same,PGE2 level vs vehicle,PND 35 STR,↑ (1-1.49 times higher than vehicle)
